Test results from ChEMBL document CHEMBL3879886, “Substantially pure 2-{[2-(2-Methylamino-Pyrimidin-4-YL)-1H-Indole-5-Carbonyl]-Amino}-3-Phenylpyridin-2-YL-Amino)-Propionic acid as an IkB kinase inhibitor” (2007).

Assays:
Mus musculus = experiment: In vivo inhibition of IKK2 in Balb/c mouse assessed as decrease in IL-1beta-induced NF-kappaB activation administered intranasally 0.5 to 1 hr prior to IL-1beta challenge measured after 1 to 24 hrs by luciferase reporter gene assay; format: functional
[1] = Drug uptake in Hartley guinea pig plasma at 0.01 to 0.3 mg/kg administered via intra-tracheal instillation measured after 1 hr; format: ADME, organism-based, Cavia porcellus; conditions: in vivo, inhaled_or_intranasal
[2] = Drug uptake in po dosed Hartley guinea pig plasma; format: ADME, organism-based, Cavia porcellus; conditions: in vivo
[3] = Drug uptake in Hartley guinea pig lung at 0.3 mg/kg administered via intra-tracheal instillation measured after 1 hr; format: ADME, organism-based, Cavia porcellus; conditions: in vivo, inhaled_or_intranasal
[4] = Prodrug conversion in Hartley guinea pig lung assessed as formation of 2-{[2-(2-Methylamino-pyrimidin-4-yl)-lH-indole-5-carbo- nyl]-amino}-3-(phenyl-pyridin-2-yl-amino)-propionic acid at 0.01 to 0.3 administered via intra-tracheal instillation measured after 1 hr; format: ADME, Cavia porcellus; conditions: in vivo, inhaled_or_intranasal
[5] = Drug uptake in Hartley guinea pig lung at 0.01 to 0.3 mg/kg administered via intra-tracheal instillation measured after 1 hr; format: ADME, organism-based, Cavia porcellus; conditions: in vivo, inhaled_or_intranasal

Row | Drug uptake [1] | Drug uptake [2] | Drug uptake [3] | Drug metabolism [4] | Drug uptake [5] | SMILES | inhibition (Mus musculus)
1 | Active | Active | Active | Metabolite_Detected | – | CNc1nccc(-c2cc3cc(C(=O)N[C@@H](CN(c4ccccc4)c4ccccn4)C(=O)NOC)ccc3[nH]2)n1 | Dose-dependent effect
2 | Active | Active | – | – | Active | CNc1nccc(-c2cc3cc(C(=O)N[C@@H](CN(c4ccccc4)c4ccccn4)C(=O)O)ccc3[nH]2)n1 | Dose-dependent effect
